# Source: article PMC11062922 (Nature Chemical Biology, 2023)
# How the values were obtained:
# Assay in all cases: Kinobeads competition binding profiling, two doses (100 nM and 1 µM);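 also: inhibitor preincubated 45 min at 4 °C in cell lysate, then bead pulldown. Bound protein quantified by label-free mass spectrometry relative to DMSO vehicle control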
# [1] = target: T1, endogenous kinases and other proteins enriched by Kinobeads from mixed lysates of K-562, COLO-205, MV-4-11, SK-N-BE(2) and OVCAR-8 (Homo sapiens, UniProt O60674); settings: JAK2(JH1domain-catalytic)
# T1 construct: endogenous in cells
# T1 sequence (O60674 whole entry): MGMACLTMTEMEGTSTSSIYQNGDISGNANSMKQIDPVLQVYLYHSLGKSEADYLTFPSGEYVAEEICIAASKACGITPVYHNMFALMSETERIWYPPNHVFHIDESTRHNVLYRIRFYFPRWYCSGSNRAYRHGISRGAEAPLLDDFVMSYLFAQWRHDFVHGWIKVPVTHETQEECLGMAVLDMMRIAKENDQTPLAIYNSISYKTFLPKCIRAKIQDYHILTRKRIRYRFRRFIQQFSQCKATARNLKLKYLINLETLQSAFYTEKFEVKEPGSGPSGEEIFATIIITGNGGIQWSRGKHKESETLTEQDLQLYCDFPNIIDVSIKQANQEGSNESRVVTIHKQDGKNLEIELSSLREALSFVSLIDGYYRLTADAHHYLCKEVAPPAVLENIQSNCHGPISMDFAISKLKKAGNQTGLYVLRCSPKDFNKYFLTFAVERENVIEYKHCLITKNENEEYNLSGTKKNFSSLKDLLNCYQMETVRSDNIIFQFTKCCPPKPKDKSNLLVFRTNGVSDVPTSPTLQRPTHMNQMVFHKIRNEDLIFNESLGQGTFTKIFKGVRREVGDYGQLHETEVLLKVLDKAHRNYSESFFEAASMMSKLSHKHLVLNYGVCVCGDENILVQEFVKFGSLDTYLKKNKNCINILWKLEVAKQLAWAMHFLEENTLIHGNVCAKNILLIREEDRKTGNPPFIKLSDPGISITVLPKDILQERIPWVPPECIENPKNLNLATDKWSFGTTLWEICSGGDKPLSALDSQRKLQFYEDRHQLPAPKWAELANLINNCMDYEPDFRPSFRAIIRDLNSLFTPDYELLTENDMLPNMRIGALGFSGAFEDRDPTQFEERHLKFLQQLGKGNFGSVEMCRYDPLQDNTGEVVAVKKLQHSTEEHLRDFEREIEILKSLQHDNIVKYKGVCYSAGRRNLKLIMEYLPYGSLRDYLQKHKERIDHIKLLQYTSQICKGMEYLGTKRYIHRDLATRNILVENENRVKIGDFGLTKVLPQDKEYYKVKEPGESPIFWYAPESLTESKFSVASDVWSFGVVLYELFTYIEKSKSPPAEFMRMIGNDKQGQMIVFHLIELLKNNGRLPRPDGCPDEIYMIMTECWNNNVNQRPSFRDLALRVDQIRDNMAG
# [2] = target: T2, endogenous kinases and other proteins enriched by Kinobeads from mixed lysates of K-562, COLO-205, MV-4-11, SK-N-BE(2) and OVCAR-8 (Homo sapiens, UniProt O75716); settings: STK16
# T2 construct: endogenous in cells
# T2 sequence (O75716 whole entry): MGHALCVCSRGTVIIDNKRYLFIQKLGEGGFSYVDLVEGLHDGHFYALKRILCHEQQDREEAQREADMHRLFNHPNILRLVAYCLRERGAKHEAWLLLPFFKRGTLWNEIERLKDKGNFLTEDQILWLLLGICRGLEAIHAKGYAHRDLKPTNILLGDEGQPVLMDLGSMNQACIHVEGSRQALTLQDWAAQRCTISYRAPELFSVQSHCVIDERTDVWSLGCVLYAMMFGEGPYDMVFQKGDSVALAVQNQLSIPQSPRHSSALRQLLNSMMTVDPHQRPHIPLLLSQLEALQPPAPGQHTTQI
# [3] = target: T3, endogenous kinases and other proteins enriched by Kinobeads from mixed lysates of K-562, COLO-205, MV-4-11, SK-N-BE(2) and OVCAR-8 (Homo sapiens, UniProt P22694); settings: PKAC-beta
# T3 construct: endogenous in cells
# [4] = target: T4, endogenous kinases and other proteins enriched by Kinobeads from mixed lysates of K-562, COLO-205, MV-4-11, SK-N-BE(2) and OVCAR-8 (Homo sapiens, UniProt P29597); settings: TYK2(JH2domain-pseudokinase)
# T4 construct: endogenous in cells
# T4 sequence (P29597 whole entry): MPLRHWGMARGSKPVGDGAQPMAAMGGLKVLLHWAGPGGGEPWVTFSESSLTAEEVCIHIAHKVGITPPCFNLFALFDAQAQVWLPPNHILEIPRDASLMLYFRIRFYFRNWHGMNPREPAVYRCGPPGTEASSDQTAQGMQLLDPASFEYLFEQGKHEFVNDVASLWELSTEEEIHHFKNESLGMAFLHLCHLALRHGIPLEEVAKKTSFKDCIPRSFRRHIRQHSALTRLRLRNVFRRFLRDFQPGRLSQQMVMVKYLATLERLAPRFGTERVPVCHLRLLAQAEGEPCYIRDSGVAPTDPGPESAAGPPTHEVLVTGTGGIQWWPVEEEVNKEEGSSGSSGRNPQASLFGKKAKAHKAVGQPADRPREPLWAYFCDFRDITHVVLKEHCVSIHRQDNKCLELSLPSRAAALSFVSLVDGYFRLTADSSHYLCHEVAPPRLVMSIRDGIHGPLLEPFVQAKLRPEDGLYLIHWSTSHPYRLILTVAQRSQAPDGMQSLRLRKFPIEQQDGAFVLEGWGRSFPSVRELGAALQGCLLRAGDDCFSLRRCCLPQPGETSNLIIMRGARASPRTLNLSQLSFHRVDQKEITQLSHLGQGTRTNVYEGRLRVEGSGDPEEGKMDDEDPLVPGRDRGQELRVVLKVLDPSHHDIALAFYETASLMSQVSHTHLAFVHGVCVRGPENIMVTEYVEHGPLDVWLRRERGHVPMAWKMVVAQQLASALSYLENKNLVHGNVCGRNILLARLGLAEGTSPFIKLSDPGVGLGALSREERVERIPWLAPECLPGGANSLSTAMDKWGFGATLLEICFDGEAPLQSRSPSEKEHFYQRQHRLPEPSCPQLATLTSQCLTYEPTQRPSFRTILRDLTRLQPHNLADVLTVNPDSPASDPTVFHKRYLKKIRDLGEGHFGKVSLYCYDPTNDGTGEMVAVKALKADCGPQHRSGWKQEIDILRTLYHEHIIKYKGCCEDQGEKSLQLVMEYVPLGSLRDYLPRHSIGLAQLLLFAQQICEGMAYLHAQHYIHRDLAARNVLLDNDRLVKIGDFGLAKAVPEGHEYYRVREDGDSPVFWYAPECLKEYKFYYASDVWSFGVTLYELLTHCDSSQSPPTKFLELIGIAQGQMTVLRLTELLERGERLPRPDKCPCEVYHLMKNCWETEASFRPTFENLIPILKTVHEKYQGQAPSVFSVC
# [5] = target: T5, endogenous kinases and other proteins enriched by Kinobeads from mixed lysates of K-562, COLO-205, MV-4-11, SK-N-BE(2) and OVCAR-8 (Homo sapiens, UniProt P49759); settings: CLK1
# T5 construct: endogenous in cells
# [6] = target: T6, endogenous kinases and other proteins enriched by Kinobeads from mixed lysates of K-562, COLO-205, MV-4-11, SK-N-BE(2) and OVCAR-8 (Homo sapiens, UniProt P51955); settings: NEK2
# T6 construct: endogenous in cells
# [7] = target: T7, endogenous kinases and other proteins enriched by Kinobeads from mixed lysates of K-562, COLO-205, MV-4-11, SK-N-BE(2) and OVCAR-8 (Homo sapiens, UniProt P54646); settings: AMPK-alpha2
# T7 construct: endogenous in cells
# [8] = target: T8, endogenous kinases and other proteins enriched by Kinobeads from mixed lysates of K-562, COLO-205, MV-4-11, SK-N-BE(2) and OVCAR-8 (Homo sapiens, UniProt P80192); settings: MLK1
# T8 construct: endogenous in cells
# [9] = target: T9, endogenous kinases and other proteins enriched by Kinobeads from mixed lysates of K-562, COLO-205, MV-4-11, SK-N-BE(2) and OVCAR-8 (Homo sapiens, UniProt Q08345); settings: DDR1
# T9 construct: endogenous in cells
# T9 sequence (Q08345 19-913): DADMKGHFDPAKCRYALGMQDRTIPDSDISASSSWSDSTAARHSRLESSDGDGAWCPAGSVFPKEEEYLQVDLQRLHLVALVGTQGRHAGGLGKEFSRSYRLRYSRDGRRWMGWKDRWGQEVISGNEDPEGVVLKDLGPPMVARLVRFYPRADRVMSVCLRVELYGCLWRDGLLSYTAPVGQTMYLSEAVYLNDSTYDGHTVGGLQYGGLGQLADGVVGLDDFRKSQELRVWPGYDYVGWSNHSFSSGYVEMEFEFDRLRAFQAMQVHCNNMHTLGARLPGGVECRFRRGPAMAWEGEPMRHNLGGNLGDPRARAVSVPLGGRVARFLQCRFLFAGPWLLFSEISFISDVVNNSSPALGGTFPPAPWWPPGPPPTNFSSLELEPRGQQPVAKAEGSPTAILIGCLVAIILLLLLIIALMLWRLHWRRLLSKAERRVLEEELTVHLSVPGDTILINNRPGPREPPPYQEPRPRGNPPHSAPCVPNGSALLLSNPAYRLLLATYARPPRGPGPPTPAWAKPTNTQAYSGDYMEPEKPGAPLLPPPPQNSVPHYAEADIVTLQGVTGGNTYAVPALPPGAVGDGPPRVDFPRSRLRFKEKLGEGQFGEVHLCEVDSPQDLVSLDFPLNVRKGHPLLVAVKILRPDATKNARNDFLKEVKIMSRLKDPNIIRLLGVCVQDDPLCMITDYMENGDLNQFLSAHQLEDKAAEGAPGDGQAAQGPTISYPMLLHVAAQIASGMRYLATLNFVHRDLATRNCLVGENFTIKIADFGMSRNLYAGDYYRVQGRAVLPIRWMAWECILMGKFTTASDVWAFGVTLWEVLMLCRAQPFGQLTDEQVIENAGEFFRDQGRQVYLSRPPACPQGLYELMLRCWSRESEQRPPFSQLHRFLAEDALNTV
# [10] = target: T10, endogenous kinases and other proteins enriched by Kinobeads from mixed lysates of K-562, COLO-205, MV-4-11, SK-N-BE(2) and OVCAR-8 (Homo sapiens, UniProt Q12866); settings: MERTK
# T10 construct: endogenous in cells
# [11] = target: T11, endogenous kinases and other proteins enriched by Kinobeads from mixed lysates of K-562, COLO-205, MV-4-11, SK-N-BE(2) and OVCAR-8 (Homo sapiens, UniProt Q13163); settings: MEK5
# T11 construct: endogenous in cells
# [12] = target: T12, endogenous kinases and other proteins enriched by Kinobeads from mixed lysates of K-562, COLO-205, MV-4-11, SK-N-BE(2) and OVCAR-8 (Homo sapiens, UniProt Q15418); settings: RSK1(Kin.Dom.1-N-terminal)
# T12 construct: endogenous in cells
# [13] = target: T13, endogenous kinases and other proteins enriched by Kinobeads from mixed lysates of K-562, COLO-205, MV-4-11, SK-N-BE(2) and OVCAR-8 (Homo sapiens, UniProt Q9HC98); settings: NEK6
# T13 construct: endogenous in cells
# T13 sequence (Q9HC98 whole entry): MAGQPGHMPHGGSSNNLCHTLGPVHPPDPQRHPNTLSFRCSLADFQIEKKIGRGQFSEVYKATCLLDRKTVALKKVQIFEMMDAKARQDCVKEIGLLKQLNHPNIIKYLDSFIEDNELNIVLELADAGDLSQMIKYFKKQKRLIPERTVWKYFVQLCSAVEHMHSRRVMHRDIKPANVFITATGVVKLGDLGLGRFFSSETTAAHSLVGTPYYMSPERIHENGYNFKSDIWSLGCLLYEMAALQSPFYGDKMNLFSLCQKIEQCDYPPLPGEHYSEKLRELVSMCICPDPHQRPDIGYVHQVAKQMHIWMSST
# [14] = target: T14, endogenous kinases and other proteins enriched by Kinobeads from mixed lysates of K-562, COLO-205, MV-4-11, SK-N-BE(2) and OVCAR-8 (Homo sapiens, UniProt Q9UHD2); settings: TBK1
# T14 construct: endogenous in cells
# T14 sequence (Q9UHD2 whole entry): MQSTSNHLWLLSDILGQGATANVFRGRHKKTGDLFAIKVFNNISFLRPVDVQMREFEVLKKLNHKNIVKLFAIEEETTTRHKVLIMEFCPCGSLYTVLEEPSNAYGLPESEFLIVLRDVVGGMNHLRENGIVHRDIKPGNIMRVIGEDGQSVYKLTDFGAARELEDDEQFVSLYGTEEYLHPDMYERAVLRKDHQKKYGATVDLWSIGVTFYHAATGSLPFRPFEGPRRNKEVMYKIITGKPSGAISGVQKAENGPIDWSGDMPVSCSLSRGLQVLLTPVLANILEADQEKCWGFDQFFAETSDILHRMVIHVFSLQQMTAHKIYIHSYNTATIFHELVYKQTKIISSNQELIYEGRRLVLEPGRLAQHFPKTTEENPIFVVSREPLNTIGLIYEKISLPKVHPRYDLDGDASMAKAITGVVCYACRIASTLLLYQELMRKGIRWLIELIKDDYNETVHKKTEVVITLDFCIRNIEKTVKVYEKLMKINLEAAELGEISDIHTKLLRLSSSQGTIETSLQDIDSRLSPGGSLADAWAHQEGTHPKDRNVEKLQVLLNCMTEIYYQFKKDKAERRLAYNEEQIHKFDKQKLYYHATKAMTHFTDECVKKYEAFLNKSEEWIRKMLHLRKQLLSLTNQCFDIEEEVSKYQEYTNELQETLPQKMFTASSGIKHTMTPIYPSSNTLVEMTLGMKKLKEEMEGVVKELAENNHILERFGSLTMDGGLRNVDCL
# [15] = target: T15, endogenous kinases and other proteins enriched by Kinobeads from mixed lysates of K-562, COLO-205, MV-4-11, SK-N-BE(2) and OVCAR-8 (Homo sapiens, UniProt P07948); settings: read-out: Lestaurtinib Drugmatrix value (apparent Kd), Gene Name LYN; target LYN; each column = one Lestaurtinib control run_replicate
# T15 construct: endogenous in cells
# T15 sequence (P07948 whole entry): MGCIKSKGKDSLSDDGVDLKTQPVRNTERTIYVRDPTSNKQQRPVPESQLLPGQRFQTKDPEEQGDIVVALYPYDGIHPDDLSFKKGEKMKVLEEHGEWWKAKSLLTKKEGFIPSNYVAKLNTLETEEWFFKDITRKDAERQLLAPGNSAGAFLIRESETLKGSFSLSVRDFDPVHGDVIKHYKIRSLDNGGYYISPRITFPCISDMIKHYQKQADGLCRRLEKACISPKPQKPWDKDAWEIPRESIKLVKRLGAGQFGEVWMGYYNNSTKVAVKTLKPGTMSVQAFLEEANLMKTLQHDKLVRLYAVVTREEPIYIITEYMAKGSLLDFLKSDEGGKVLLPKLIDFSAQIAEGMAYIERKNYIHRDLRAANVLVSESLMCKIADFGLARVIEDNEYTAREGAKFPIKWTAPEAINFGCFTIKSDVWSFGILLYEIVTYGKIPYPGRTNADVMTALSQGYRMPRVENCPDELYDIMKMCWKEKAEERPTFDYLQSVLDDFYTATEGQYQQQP
# [16] = target: T16, endogenous kinases and other proteins enriched by Kinobeads from mixed lysates of K-562, COLO-205, MV-4-11, SK-N-BE(2) and OVCAR-8 (Homo sapiens, UniProt P42345); settings: read-out: Lestaurtinib Drugmatrix value (apparent Kd), Gene Name MTOR; target MTOR; each column = one Lestaurtinib control run_replicate
# T16 construct: endogenous in cells
# [17] = target: T17, endogenous kinases and other proteins enriched by Kinobeads from mixed lysates of K-562, COLO-205, MV-4-11, SK-N-BE(2) and OVCAR-8 (Homo sapiens, UniProt P42680); settings: read-out: Lestaurtinib Drugmatrix value, Gene Name TEC; target TEC; one Lestaurtinib control experiment/replicate (R1-R3)
# T17 construct: to maximize the representation of endogenous proteins; endogenous in cells
# [18] = target: T18, endogenous kinases and other proteins enriched by Kinobeads from mixed lysates of K-562, COLO-205, MV-4-11, SK-N-BE(2) and OVCAR-8 (Homo sapiens, UniProt Q13188); settings: read-out: Lestaurtinib Drugmatrix value, Gene Name STK3; target STK3; one Lestaurtinib control experiment/replicate (R1-R3)
# T18 construct: endogenous in cells
# [19] = target: T19, endogenous kinases and other proteins enriched by Kinobeads from mixed lysates of K-562, COLO-205, MV-4-11, SK-N-BE(2) and OVCAR-8 (Homo sapiens, UniProt Q15569); settings: read-out: Lestaurtinib Drugmatrix value, Gene Name TESK1; target TESK1; one Lestaurtinib control experiment/replicate (R1-R3)
# T19 construct: endogenous in cells
# [20] = target: T20, endogenous kinases and other proteins enriched by Kinobeads from mixed lysates of K-562, COLO-205, MV-4-11, SK-N-BE(2) and OVCAR-8 (Homo sapiens, UniProt Q8WZ42); settings: read-out: Lestaurtinib Drugmatrix value, Gene Name TTN; target TTN; one Lestaurtinib control experiment/replicate (R1-R3)
# T20 construct: endogenous in cells
# [21] = system: endogenous kinases and other proteins enriched by Kinobeads from mixed lysates of K-562, COLO-205, MV-4-11, SK-N-BE(2) and OVCAR-8; set-up: species or system human
compound,measurement,setting,value
COc1cc(Nc2ncc3c(C)nc(-c4cc5ccccc5[nH]4)n3n2)cc(OC)c1OC [GW869516X],Kinobeads Data,[1],no target
same,Kinobeads Data,[2],no target
same,Kinobeads Data,[3],no target
same,Kinobeads Data,[4],no target
same,Kinobeads Data,[5],no target
same,Kinobeads Data,[6],no target
same,Kinobeads Data,[7],no target
same,Kinobeads Data,[8],no target
same,Kinobeads Data,[9],no target
same,Kinobeads Data,[10],no target
same,Kinobeads Data,[11],no target
same,Kinobeads Data,[12],no target
same,Kinobeads Data,[13],no target
same,Kinobeads Data,[14],no target
C[C@]12O[C@H](C[C@]1(O)CO)n1c3ccccc3c3c4c(c5c6ccccc6n2c5c31)CNC4=O [Lestaurtinib],potency estimated from few doses,[15],808 nM
same,potency estimated from few doses,[16],482 nM
same,potency estimated from few doses,[17],895 nM
same,potency estimated from few doses,[18],39.1 nM
same,potency estimated from few doses,[19],622 nM
same,potency estimated from few doses,[20],737 nM
same,number of targets in the Kinobead assay,[21],76
